From patent publication US20250179047A1, “5-[7-(3,4-DIHYDRO-1H-ISOQUINOLINE-2-CARBONYL)-1,2,3,4 TETRAHYDROISOQUINOLIN-6-YL]-1H-PYRROLE-3-CARBOXAMIDE DERIVATIVES, PHARMACEUTICAL COMPOSITIONS CONTAINING THEM AND THEIR USES AS PRO-APOPTOTIC AGENTS” (LES LABORATOIRES SERVIER, priority 2022, published 2025) come the findings set out here.

One assay has as its system KMS-12-PE Bcl-2 WT. Briefly: In vitro cytotoxicity CellTiter-Glo 48 h, KMS-12-PE Bcl-2 WT. Particulars: Homo sapiens, KMS-12-PE, C50 = concentration needed to reach 50% of the cellular viability. The class given is cell-based. The essentials: (§1)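 CTG luminescence read-out; C50 = concentration reaching 50% cellular viability. Cells: KMS-12-PE expressing Bcl-2 WT or G101V (lentiviral, TagRFP-sorted). 11-pt curve, 48 h, 37 °C/5% CO2.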

Another assay addresses BCL2 WT (Homo sapiens (Human), UniProt P10415). Briefly: TR-FRET competitive binding assay, BCL2 WT. As to conditions: Ki determined from IC50, read-out: TR_FRET EKI_Bcl2 WT. The essentials:
(§2)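 Terbium-labelled N-terminal Halo-fusion BCL2 or BCLXL (E. coli), 0.5 nM, competed against fluorescein-labelled PUMA peptide (2 or 20 nM) for 2 h at 23° C in 50 mM Hepes pH 7.5, 150 mM NaCl, 5% DMSO. TR-FRET 520/495 nm ratio gave IC50 by four-parameter fit; Ki derived from IC50.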

Another assay has as its target BCL2 D103Y (Homo sapiens, UniProt P10415, D103Y). In words: TR-FRET competitive binding assay, BCL2 D103Y. As to conditions: Ki determined from IC50, read-out: TR_FRET EKI_Bcl2 D103Y. A digest of the protocol: as §2
In assay [1] the test system is BCL2 G101V. Briefly: TR-FRET competitive binding assay, BCL2 G101V. Also on record: species or system human. Particulars: ratio Ki BCL2 G101V / Ki BCL2 WT. A digest of the protocol: as §2
The target of assay [2] is BCL2 G101V (Homo sapiens, UniProt P10415, G101V). Briefly: TR-FRET competitive binding assay, BCL2 G101V. As to conditions: BCL2 G101V; Ki determined from IC50; read-out: TR_FRET EKI_Bcl2 G101V. A digest of the protocol: as §2
The target in another assay is BCLXL WT (Homo sapiens (Human), UniProt Q07817). In words: TR-FRET competitive binding assay, BCLXL WT. Particulars: for Ki: BCLXL WT, Ki determined from IC50, read-out: TR_FRET EKI BclxL; for TR_FRET EKI BCLxL/WT selectivty ratio: ratio Ki BCLxL / Ki BCL2 WT. The essentials:
as §2

The target of the next assay is BCL2 D111A (Homo sapiens, UniProt P10415, D111A). In words: TR-FRET competitive binding assay, BCL2 D111A. As to conditions: Ki determined from IC50, read-out: TR_FRET EKI_Bcl2 D111A. The essentials:
as §2

The target in another assay is BCL2 F104I (Homo sapiens, UniProt P10415, F104I). In words: TR-FRET competitive binding assay, BCL2 F104I. As to conditions: Ki determined from IC50, read-out: TR_FRET EKI_Bcl2 F104I. The essentials: as §2
A further assay concerns KMS-12-PE Bcl-2 G101V. In words: In vitro cytotoxicity CellTiter-Glo 48 h, KMS-12-PE Bcl-2 G101V. It counts as cell-based. As to conditions: for Ratio (G101V/WT): C50 KMS-12-PE Bcl-2 G101V over C50 KMS-12-PE Bcl-2 WT; for IC50: Homo sapiens, KMS-12-PE, 48 h, CellTiter-Glo, C50 = concentration needed to reach 50% of the cellular viability. A digest of the protocol:
as §1

Sequence of BCLXL WT (Q07817 other isoform, or with tags, fused parts or gaps): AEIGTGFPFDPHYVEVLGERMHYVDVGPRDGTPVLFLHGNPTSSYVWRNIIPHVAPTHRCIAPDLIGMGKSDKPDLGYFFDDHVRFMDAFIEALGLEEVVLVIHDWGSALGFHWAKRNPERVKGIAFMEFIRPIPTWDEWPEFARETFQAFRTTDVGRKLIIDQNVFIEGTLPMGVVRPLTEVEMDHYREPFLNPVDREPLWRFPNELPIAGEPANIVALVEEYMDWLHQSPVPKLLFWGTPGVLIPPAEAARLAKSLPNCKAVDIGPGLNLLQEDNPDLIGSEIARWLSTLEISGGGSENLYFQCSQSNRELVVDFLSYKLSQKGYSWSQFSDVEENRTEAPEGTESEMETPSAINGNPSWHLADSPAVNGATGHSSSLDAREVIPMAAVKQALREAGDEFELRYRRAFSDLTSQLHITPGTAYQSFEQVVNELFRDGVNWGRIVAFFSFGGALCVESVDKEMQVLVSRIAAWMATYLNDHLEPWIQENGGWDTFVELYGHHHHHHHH

Regarding `Cc1c(N(C(=O)c2cc(-c3cc4c(cc3C(=O)N3Cc5ccccc5C[C@H]3CN3CCC(F)CC3)CN(C(=O)Cc3ccc(OCCN5CCOCC5)cc3F)CC4)n(C)c2C)c2ccc(O)cc2)cc(C#N)n1C` [Example 86, N-(5-cyano-1,2-dimethyl-1H-pyrrol-3-yl)-5-[2-(2-{2-fluoro-4-[2-(morpholin-4-yl)ethoxy]phenyl}acetyl)-7-[(3S)-3-[(4-fluoropiperidin-1-yl)methyl]-1,2,3,4-tetrahydroisoquinoline-2-carbonyl]-1,2,3,4-tetrahydroisoquinolin-6-yl]-N-(4-hydroxyphenyl)-1,2-dimethyl-1H-pyrrole-3-carboxamide], the figures for the IC50 with KMS-12-PE Bcl-2 WT and in the assay with KMS-12-PE Bcl-2 G101V were 0.0048 µM and 0.0249 µM, respectively. Further, the Ki on BCL2 WT was determined as 0.13 nM; on BCL2 D103Y, 0.42 nM; at BCL2 G101V [2], 0.5 nM; at BCLXL WT, 1.6 nM; on BCL2 D111A it was 0.23 nM; on BCL2 F104I, 0.37 nM. Moreover, the “TR_FRET EKI G101V/WT selectivty ratio” value in the assay on BCL2 G101V [1] was determined as 3.9. The “TR_FRET EKI BCLxL/WT selectivty ratio” value at BCLXL WT turned out to be 12.3. Moreover, the “Ratio (G101V/WT)” value with KMS-12-PE Bcl-2 G101V is 5.21.
With `Cc1c(N(C(=O)c2cc(-c3cc4c(cc3C(=O)N3Cc5ccccc5C[C@H]3CN3CCCCC3)CN(C(=O)Cc3ccc(O[C@H]5CCN(CCF)C5)cc3F)CC4)n(C)c2C)c2ccc(O)cc2)cc(C#N)n1C` [Example 89, N-(5-cyano-1,2-dimethylpyrrol-3-yl)-5-{2-[2-(2-fluoro-4-{[(3S)-1-(2-fluoroethyl)pyrrolidin-3-yl]oxy}phenyl)acetyl]-7-{[(3S)-3-(piperidin-1-ylmethyl)-3,4-dihydro-1H-isoquinolin-2-yl]carbonyl}-3,4-dihydro-1H-isoquinolin-6-yl}-N-(4-hydroxyphenyl)-1,2-dimethylpyrrole-3-carboxamide], the half-inhibitory concentration (IC50) in the assay with KMS-12-PE Bcl-2 WT worked out at 0.0069 µM; in the assay on KMS-12-PE Bcl-2 G101V it was 0.0358 µM. In addition, the Ki is 0.07 nM on BCL2 WT; 0.18 nM on BCL2 D103Y; 0.3 nM on BCL2 G101V [2]; 1.9 nM on BCLXL WT; 0.26 nM on BCL2 D111A; 0.43 nM on BCL2 F104I. The “TR_FRET EKI G101V/WT selectivty ratio” value in the assay with BCL2 G101V [1] was determined as 4.3. Besides, the “TR_FRET EKI BCLxL/WT selectivty ratio” value on BCLXL WT was 29.2. In the assay with KMS-12-PE Bcl-2 G101V, the “Ratio (G101V/WT)” value is given as 5.17.
For `Cc1c(N(C(=O)c2cc(-c3cc4c(cc3C(=O)N3Cc5ccccc5C[C@H]3CN3CCCCCC3)CN(C(=O)Cc3ccc(OCCN5CCOCC5)cc3F)CC4)n(C)c2C)c2ccc(O)cc2)cc(C#N)n1C` [Example 96, 5-{7-[(3S)-3-[(azepan-1-yl)methyl]-1,2,3,4-tetrahydroisoquinoline-2-carbonyl]-2-(2-{2-fluoro-4-[2-(morpholin-4-yl)ethoxy]phenyl}acetyl)-1,2,3,4-tetrahydroisoquinolin-6-yl}-N-(5-cyano-1,2-dimethyl-1H-pyrrol-3-yl)-N-(4-hydroxyphenyl)-1,2-dimethyl-1H-pyrrole-3-carboxamide], the IC50 in the assay with KMS-12-PE Bcl-2 WT worked out at 0.0056 µM; in the assay with KMS-12-PE Bcl-2 G101V, 0.0291 µM. The Ki at BCL2 WT is 0.06 nM; at BCL2 D103Y, 0.2 nM; on BCL2 G101V [2], 0.4 nM; at BCLXL WT, 2.4 nM; at BCL2 D111A it was 0.2 nM; at BCL2 F104I, 0.2 nM. Further, the “TR_FRET EKI G101V/WT selectivty ratio” value in the assay with BCL2 G101V [1] came to 5.6. Also, the “TR_FRET EKI BCLxL/WT selectivty ratio” value at BCLXL WT amounted to 37.5. Further, the “Ratio (G101V/WT)” value in the assay with KMS-12-PE Bcl-2 G101V amounted to 5.15.
On to `Cc1c(N(C(=O)c2cc(-c3cc4c(cc3C(=O)N3Cc5ccccc5C[C@H]3CN3CCCCC3)CN(C(=O)Cc3c(F)cc(OCCN5CCOCC5)cc3F)CC4)n(C)c2C)c2ccc(O)cc2)cc(C#N)n1C` [Example 97, N-(5-cyano-1,2-dimethylpyrrol-3-yl)-5-[2-(2-{2,6-difluoro-4-[2-(morpholin-4-yl)ethoxy]phenyl}acetyl)-7-{[(3S)-3-(piperidin-1-ylmethyl)-3,4-dihydro-1H-isoquinolin-2-yl]carbonyl}-3,4-dihydro-1H-isoquinolin-6-yl]-N-(4-hydroxyphenyl)-1,2-dimethylpyrrole-3-carboxamide], for which the values for the IC50 in the assay with KMS-12-PE Bcl-2 WT and in the assay on KMS-12-PE Bcl-2 G101V were 0.0033 µM and 0.0158 µM, respectively. The Ki on BCL2 WT was determined as 0.05 nM; on BCL2 D103Y, 0.18 nM; at BCL2 G101V [2] it was 0.2 nM; at BCLXL WT, 1.9 nM; at BCL2 D111A it was 0.14 nM; on BCL2 F104I, 0.16 nM. Further, in the assay on BCL2 G101V [1], the “TR_FRET EKI G101V/WT selectivty ratio” value is recorded as 4.3. Also, the “TR_FRET EKI BCLxL/WT selectivty ratio” value at BCLXL WT was 41.3. Also, in the assay on KMS-12-PE Bcl-2 G101V, the “Ratio (G101V/WT)” value was found to be 4.68.
Regarding `Cc1c(N(C(=O)c2cc(-c3cc4c(cc3C(=O)N3Cc5ccccc5C[C@H]3CN3CCCCC3)CN(C(=O)Cc3ccc(OCCN5C[C@@H](C)O[C@@H](C)C5)cc3)CC4)n(C)c2C)c2ccc(O)cc2)cc(C#N)n1C` [Example 98, N-(5-cyano-1,2-dimethylpyrrol-3-yl)-5-{2-[2-(4-{2-[cis-2,6-dimethylmorpholin-4-yl]ethoxy}phenyl)acetyl]-7-{[(3S)-3-(piperidin-1-ylmethyl)-3,4-dihydro-1H-isoquinolin-2-yl]carbonyl}-3,4-dihydro-1H-isoquinolin-6-yl}-N-(4-hydroxyphenyl)-1,2-dimethylpyrrole-3-carboxamide], the IC50 in the assay on KMS-12-PE Bcl-2 WT is 0.0087 µM; with KMS-12-PE Bcl-2 G101V, 0.0401 µM. In addition, the Ki worked out at 0.07 nM on BCL2 WT; 0.24 nM on BCL2 D103Y; 0.4 nM at BCL2 G101V [2]; 4.7 nM on BCLXL WT; 0.25 nM at BCL2 D111A; 0.6 nM on BCL2 F104I. Moreover, the “TR_FRET EKI G101V/WT selectivty ratio” value with BCL2 G101V [1] came out at 4.9. In addition, the “TR_FRET EKI BCLxL/WT selectivty ratio” value at BCLXL WT is listed as 66.2. Also, the “Ratio (G101V/WT)” value in the assay on KMS-12-PE Bcl-2 G101V was 4.6.
In the case of `Cc1c(N(C(=O)c2cc(-c3cc4c(cc3C(=O)N3Cc5ccccc5C[C@H]3CN3CCCCC3)CN(C(=O)Cc3ccc(OCCN(C)C5CC5)cc3)CC4)n(C)c2C)c2ccc(O)cc2)cc(C#N)n1C` [Example 102, N-(5-cyano-1,2-dimethyl-1H-pyrrol-3-yl)-5-{2-[2-(4-{2-[cyclopropyl(methyl)amino]ethoxy}phenyl)acetyl]-7-[(3S)-3-[(piperidin-1-yl)methyl]-1,2,3,4-tetrahydroisoquinoline-2-carbonyl]-1,2,3,4-tetrahydroisoquinolin-6-yl}-N-(4-hydroxyphenyl)-1,2-dimethyl-1H-pyrrole-3-carboxamide], the IC50 in the assay on KMS-12-PE Bcl-2 WT came out at 0.0075 µM; in the assay with KMS-12-PE Bcl-2 G101V, 0.0424 µM. For the same compound, the Ki at BCL2 WT was 0.06 nM; on BCL2 D103Y, 0.21 nM; on BCL2 G101V [2], 0.4 nM; on BCLXL WT, 2.8 nM; on BCL2 D111A, 0.24 nM; at BCL2 F104I, 0.73 nM. In addition, the “TR_FRET EKI G101V/WT selectivty ratio” value with BCL2 G101V [1] was 6.5. Moreover, the “TR_FRET EKI BCLxL/WT selectivty ratio” value on BCLXL WT was found to be 49.1. In addition, the “Ratio (G101V/WT)” value in the assay on KMS-12-PE Bcl-2 G101V amounted to 6.03.
Take `Cc1c(N(C(=O)c2cc(-c3cc4c(cc3C(=O)N3Cc5ccccc5C[C@H]3CN3CCCCC3)CN(C(=O)Cc3ccc(OCCN(C)C5COC5)cc3F)CC4)n(C)c2C)c2ccc(O)cc2)cc(C#N)n1C` [Example 105, N-(5-cyano-1,2-dimethyl-1H-pyrrol-3-yl)-5-{2-[2-(2-fluoro-4-{2-[methyl(oxetan-3-yl)amino]ethoxy}phenyl)acetyl]-7-[(3S)-3-[(piperidin-1-yl)methyl]-1,2,3,4-tetrahydroisoquinoline-2-carbonyl]-1,2,3,4-tetrahydroisoquinolin-6-yl}-N-(4-hydroxyphenyl)-1,2-dimethyl-1H-pyrrole-3-carboxamide]: the half-maximal inhibitory concentration (IC50) in the assay on KMS-12-PE Bcl-2 WT turned out to be 0.0054 µM; in the assay with KMS-12-PE Bcl-2 G101V it was 0.0285 µM. For the same compound, the Ki on BCL2 WT came out at 0.05 nM; on BCL2 D103Y it was 0.11 nM; on BCL2 G101V [2] it was 0.2 nM; at BCLXL WT it was 1.6 nM; at BCL2 D111A, 0.12 nM; at BCL2 F104I it was 0.22 nM. Further, the “TR_FRET EKI G101V/WT selectivty ratio” value in the assay with BCL2 G101V [1] was 4.3. The “TR_FRET EKI BCLxL/WT selectivty ratio” value at BCLXL WT came to 32.7. Moreover, the “Ratio (G101V/WT)” value with KMS-12-PE Bcl-2 G101V amounted to 5.28.
